In assay [1] the test system is plasma membrane H+-ATPases. As to conditions: vanadate in its plus 5 valence state; cited from earlier work.
The target in assay [2] is T1, plasma membrane H+-ATPase (Arabidopsis thaliana, UniProt P19456).
T1 sequence (P19456 1-948): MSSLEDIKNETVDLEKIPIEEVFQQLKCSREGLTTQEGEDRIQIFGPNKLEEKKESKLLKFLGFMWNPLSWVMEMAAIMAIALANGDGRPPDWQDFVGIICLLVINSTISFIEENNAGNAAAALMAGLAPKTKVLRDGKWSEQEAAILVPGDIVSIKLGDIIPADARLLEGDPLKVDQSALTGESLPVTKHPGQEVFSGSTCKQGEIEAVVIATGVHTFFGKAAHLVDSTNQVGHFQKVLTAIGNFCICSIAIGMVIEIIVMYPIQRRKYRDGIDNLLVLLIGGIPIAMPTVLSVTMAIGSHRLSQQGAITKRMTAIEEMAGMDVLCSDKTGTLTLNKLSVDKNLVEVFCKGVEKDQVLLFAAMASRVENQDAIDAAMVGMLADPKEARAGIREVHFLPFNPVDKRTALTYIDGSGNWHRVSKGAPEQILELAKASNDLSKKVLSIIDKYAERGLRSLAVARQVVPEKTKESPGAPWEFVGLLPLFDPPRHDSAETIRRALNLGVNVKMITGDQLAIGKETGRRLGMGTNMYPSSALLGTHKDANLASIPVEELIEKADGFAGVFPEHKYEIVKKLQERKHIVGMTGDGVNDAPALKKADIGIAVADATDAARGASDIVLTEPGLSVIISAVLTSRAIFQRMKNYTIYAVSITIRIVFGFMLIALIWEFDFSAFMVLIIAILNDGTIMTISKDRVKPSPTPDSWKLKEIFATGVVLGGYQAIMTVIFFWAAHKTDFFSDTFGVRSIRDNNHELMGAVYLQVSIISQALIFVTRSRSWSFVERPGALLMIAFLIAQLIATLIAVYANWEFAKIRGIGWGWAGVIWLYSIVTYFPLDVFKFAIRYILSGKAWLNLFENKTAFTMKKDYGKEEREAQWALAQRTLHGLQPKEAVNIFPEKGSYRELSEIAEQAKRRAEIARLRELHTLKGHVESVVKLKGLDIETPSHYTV
Kind of assay: Inhibition of H+ ATPase ATP hydrolytic activity by platin and holmium ions (Pi production). As to conditions: 20 mM Mops pH 6.5, 50 mM KCl, 8 mM MgCl2, 3 mM ATP; various concentrations; FIG. 12; numbers only in figure. It counts as biochemical. The method, then:
Assay conditions are 20 mM Mops, pH: 6.5, 50 mM KCl, 8 mM MgCl2 and 3 mM ATP. Production of Pi was measured by standard […] tests. The results are shown in FIG. 12A and the activity is given as the percentage of the ATP hydrolytic activity in the absence of various concentrations of Pt (±StDev).
Assay conditions are 20 mM Mops, pH: 6.5, 50 mM KCl, 8 mM MgCl2 and 3 mM ATP. Production of Pi was measured by standard […] tests. The results are shown in FIG. 12B and the activity is given as the percentage of the ATP hydrolytic activity in the absence of various concentrations of Ho (±StDev).

Assay [3] deals with Sarcoplasmic Endoplasmic Reticulum Ca2+-ATPase (SERCA). The settings on record: blocking SERCA; cited from earlier work.

The source of these data is patent US8577624B2, “Crystal structure of a plasma membrane proton pump” (Aarhus Universitet, priority 2007, dated 2013).

As to `[O]=[V]([O-])([O-])[O-]` [Vanadate], the “concentration at which the pumps are inhibited” value in assay [1] is “μM range”.

Consider `[Ho+3]` [Ho], for which the “ATP hydrolytic activity of plasma membrane H+-ATPase” value in assay [2] is given as “inhibits”.

Take `C/C=C(/C)C(=O)O[C@H]1C(C)=C2[C@H]([C@@H]1OC(=O)CCCCCCC)[C@@](C)(OC(C)=O)C[C@H](OC(=O)CCC)[C@@]1(O)[C@H]2OC(=O)[C@@]1(C)O` [thapsigargin]: the Kd result in assay [3] was “sub-nanomolar range”.
